Broadly, the refractive index is a measure of how strongly the sample bends light. For orientation: mass density means mass per unit of volume.

Numbers after ± are expanded uncertainties.

Here are results for 2 compounds from the NIST ThermoML archive (doi:10.1021/je400488x).

Series [1] is described as follows: refractive index (Na D-line) (dimensionless). Conditions: 298.15 K; 101.33 kPa; Liquid; Standard Abbe refractometry.
For series [2] the following is noted: 293.15 K; 101.33 kPa; Liquid; Vibrating tube method.

For `COC(C)(C)C` [2-methoxy-2-methylpropane], the refractive index in series [1] was 1.3689 ± 0.0005. Also, the mass density in series [2] was found to be 739.8 ± 0.4 kg/m3. With `Oc1ccc(O)cc1` [1,4-benzenediol], in series [2], the mass density is listed as 1328 ± 1 kg/m3.
